According to patent US20260166159A1, “KRAS G12D DEGRADATION AGENT, AND PREPARATION METHOD AND USE THEREFOR” (LEADINGTAC PHARMACEUTICAL (SHAOXING) CO., LTD., priority 2022, published 2026):

Assays:
[1] = molecular target: T1, Human KRAS G12D 6His-tagged (Homo sapiens, UniProt P01116, G12D); assay: KRAS-G12D/GTP binding assay (HTRF); settings: numeric values
T1 construct: purchased PerkinElmer
Experimental: In this method, the inhibitory effects of the compounds on the binding of KRAS-G12D to GTP were assayed by a homogeneous time-resolved fluorescence (HTRF) technique using a KRAS-G12D/GTP binding assay kit (PerkinElmer).
The experimental procedures were as follows (refer to the kit instructions for detailed test methods): the compounds of the present disclosure were each firstly dissolved in DMSO at a concentration of 20 mM, and then diluted in an equal gradient with a buffer in the kit, so that the final concentrations of the test compounds in the reaction system were in a range of 0.02-5000 nM, and the final concentration of DMSO was 0.5%. 5 μL of each compound was incubated with 5 μL of 1× Human KRAS G12D 6His-tagged (PerkinElmer), 5 μL of 1×6His Eu Cryptate Antibody (PerkinElmer), and 5 μL of 1×GTP Red reagent (PerkinElmer) in a 384-well plate (Greiner) at 25° C. for 1 h. After the incubation was completed, the fluorescence intensity of each well was measured at the excitation wavelength of 337 nm and the emission wavelengths of 620 nm and 665 nm with an EnVision microplate reader (PerkinElmer) in the HTRF mode, and Ratio values were calculated using the formula: Ratio=(665 nm/620 nm)×[…]. The inhibition rates of the compounds at each concentration were calculated by comparing the fluorescence intensity ratio with that of the control group. Then non-linear curve fittings for logarithmic concentration-inhibition rate were performed using the GraphPad Prism 8 analysis software, and the IC50 values of the compounds were obtained (Table 2).

[2] = test system: KRAS G12D mutant human pancreatic cancer cell HPAC; assay: 3D cell proliferation inhibition assay, HPAC; type: cell-based; settings: 168 h, 7 days, CTG
From the text: (§1) The inhibitory effects of the compounds on 3D cell proliferation were investigated on KRAS G12D mutant human lung cancer cell A427, KRAS G12D mutant human gastric cancer cell AGS, KRAS G12D mutant human metastatic pancreatic cancer cell AsPc-1, KRAS G12D mutant human pancreatic cancer cell Panc 04.03, KRAS G12D mutant human pancreatic cancer cell HPAC, KRAS G12V mutant human lung squamous cell carcinoma cell SW900, and KRAS WT human gastric cancer cell MKN1. The specific procedures were as follows:
(§2) 10 μL of each compound solution diluted in a gradient was added to corresponding wells of a 96-well low-adsorption microplate (PerkinElmer), so that the final concentrations of the test compounds in the reaction system were in a range of 10000-0.026 nM. The final concentration of DMSO was 0.2%. Then 90 µL of cells were correspondingly seeded into each well to achieve a cell density of 5×10^2 cells/well (the cell density of SW900 was 5×10^1 cells/well, and the cell density of MKN1 was 1×10^3 cells/well). In addition to test wells for the test compounds, both a DMSO control well and a medium control well were set, with the DMSO control well containing DMSO and cells and the medium well containing only a medium. After the sample loading, the 96-well low-adsorption microplate was incubated in an incubator at 37° C. with 5% carbon dioxide for 7 days. After 7 days, the microplate was taken out, and 100 μL of CTG reagent (Promega) was added to each well. The plate was incubated at room temperature for 60 min and read on a microplate reader EnVision by the chemiluminescence program. The inhibition rates of the compounds at each concentration were calculated using the formula for the percentage inhibition of cell proliferation: inhibition rate %=(mean value of DMSO control group−single concentration reading value of compound)/(mean value of DMSO control group−mean value of medium control group)×100. Then non-linear curve fittings for logarithmic concentration-inhibition rate were performed by GraphPad Prism 8, and the IC50 values of the compounds were obtained (Table 5).

[3] = test system: KRAS G12D mutant human metastatic pancreatic cancer cell AsPc-1; assay: 3D cell proliferation inhibition assay, AsPc-1; type: cell-based; settings: ASPC1, 168 h, AsPc-1, 7 days, CTG, numeric values
From the text: as §1, §2

[4] = test system: KRAS G12D mutant human lung cancer cell A427; assay: 3D cell proliferation inhibition assay, A427; type: cell-based; settings: A-427, 168 h, A427, 7 days, CTG, numeric values
Summary of the method: (§3)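 A 7-day 3D growth at 37 °C, 5% CO2, 5×10^2 cells/well, with final compound concentrations of 10000–0.026 nM and 0.2% DMSO. Read-out: CTG luminescence (60 min, room temperature); % inhibition against DMSO-treated cells and medium blank, fitted versus log concentration to give IC50.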

KRAS-G12D [5] = molecular target: T2, KRAS-G12D (Homo sapiens, UniProt P01116, G12D); assay: KRAS-G12D degradation assay (Western Blot), AsPc-1 cells; type: cell-based; settings: for DC50: 24 h; for Dmax: ASPC1, 24 h
T2 construct: endogenous in cells; host or cells: A-427 (ATCC), AGS, AsPc-1, Panc 04.03
Experimental: The degradation effects of the compounds on KRAS-G12D were investigated on KRAS G12D mutant human lung cancer cell A-427 (ATCC), KRAS G12D mutant human gastric cancer cell AGS, KRAS G12D mutant human metastatic pancreatic cancer cell AsPc-1, and KRAS G12D mutant human pancreatic adenocarcinoma cell Panc 04.03. The specific procedures were as follows: 0.95 mL of cells were seeded into each well of a 24-well cell culture plate to achieve a cell density of 5×10^5 cells/well; and the cell plate was incubated in an incubator at 37° C. with 5% CO2 overnight. Then 50 μL of the compound solution after dilution was added to each of the wells with the corresponding cells, so that the final concentration of the compound was in a range of 0.03-3000 nM. The final concentration of DMSO was 0.25%. After the compounds were added, the cell plate was incubated in the incubator at 37° C. with 5% CO2 for 24 h. The culture medium in the 24-well cell culture plate was removed, and the plate was washed twice with 1×PBS (KeyGEN). 120 μL of RIPA (strong) lysis buffer (Beyotime) supplemented with 1 mM phenylmethylsulfonyl fluoride, a protease inhibitor mixture (Beyotime), and a protease phosphatase inhibitor mixture (Beyotime) was added to lyse adherent A-427 cells at the bottom of the cell culture plate. After the plate was left to stand on ice for 30 min, the protein lysate in each well was transferred to a 1.5 mL centrifuge tube and centrifuged at 15000 g for 20 min at 4° C. The cell lysate supernatants after centrifugation were cryopreserved in a refrigerator at −80° C. for later use.
After the samples of the cell lysate supernatants that had been prepared were thawed from the refrigerator at −80° C., the total protein concentrations of the cell lysates were determined using a BCA protein quantification kit (Tiangen). The total protein concentrations of the samples were then adjusted to 0.5 μg/μL with PBS and 5×SDS-PAGE protein loading buffer (Beyotime), and the samples were incubated in a water bath at 100° C. for 15 min. The samples were then incubated in an ice bath for 5 min and centrifuged at 14000 g for 1 min at 4° C., and the supernatants were mixed well as loading samples for the Western Blot assay. The samples were loaded into wells of a 10% precast gel (KeyGEN) with a loading volume of 10 μL (total protein: 5 μg), a sufficient Tris-MOPS-SDS running buffer (Adamas) was added, and then electrophoresis was performed at a constant voltage of 120 V for 55 min. After the electrophoresis, the proteins on the gel were transferred to PVDF membranes at a constant current of 250 mA for 55 min. After the membrane transfer, the PVDF membranes were incubated in 1× Quick Block blocking buffer (Beyotime) at room temperature for 30 min. After the blocking, the PVDF membranes were separately incubated at 4° C. overnight with the KRAS antibody (Abcam) diluted in a ratio of 1:1000 and the […] antibody (Abcam) diluted in a ratio of 1:2000 in 5% BSA as the diluent, and then washed with 1×TBST buffer (2.4 g of Tris, 8.8 g of NaCl, 1.5 mL of Tween 20, with pH adjusted to 7.4, with the volume brought to 1 L) 3 times for 10 min/time. The membranes were incubated with a secondary antibody (Abcam) diluted in 5% BSA at room temperature for 2 h, and then washed with 1×TBST buffer 3 times for 10 min/time. Finally, the membranes were incubated with Clarity Western ECL Substrate (BIO-RAD) for 5 min for luminescence and color development, and a ChemiScope 6200 Touch chemiluminescence imaging system (Clinx) was used for color development and protein mapping. Gray value analysis of the protein maps was performed using the chemiluminescence analysis software (Clinx). The gray correction value for each sample was calculated using the formula: gray correction value=(gray value of target protein/gray value of corresponding internal reference)×10^3. Then degradation rates were calculated by comparison with the gray correction value of the control group. […]

[6] = test system: KRAS G12D mutant human gastric cancer cell AGS; assay: 3D cell proliferation inhibition assay, AGS; type: cell-based; settings: 168 h, 7 days, CTG, numeric values
Summary of the method: as §3

KRAS-G12D [7] = molecular target: T2, KRAS-G12D; assay: KRAS-G12D degradation assay (Western Blot), A-427 cells; type: cell-based; settings: A427 cells, 24 h, numeric values
Summary of the method: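 Western blotting of lysates (5 μg protein) quantified KRAS against a β-actin reference after 24 h exposure to compound at final 0.03–3000 nM in 0.25% DMSO. Cells were A-427, AGS, AsPc-1 or Panc 04.03, all KRAS G12D, at 5×10^5/well. Degradation versus control yielded DC50 and Dmax.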

[8] = test system: KRAS G12D mutant human pancreatic cancer cell Panc 04.03; assay: 3D cell proliferation inhibition assay, Panc 04.03; type: cell-based; settings: 168 h, Panc 04.03, 7 days, CTG, numeric values
From the text: as §1, §2

T2 sequence (P01116 1-188 isoform P01116-2 G12D): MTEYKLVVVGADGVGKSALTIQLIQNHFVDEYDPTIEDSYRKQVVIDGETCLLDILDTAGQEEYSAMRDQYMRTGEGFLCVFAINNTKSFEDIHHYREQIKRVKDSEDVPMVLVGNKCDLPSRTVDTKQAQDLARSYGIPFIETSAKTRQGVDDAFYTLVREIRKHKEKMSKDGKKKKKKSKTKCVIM
T1 sequence (P01116 1-188 isoform P01116-2 G12D): as above

Compound	IC50 [1]	IC50 [2]	IC50 [3]	IC50 [4]	DC50 (KRAS-G12D [5])	Dmax (KRAS-G12D [5])	IC50 [6]	DC50 (KRAS-G12D [7])	Dmax (KRAS-G12D [7]; A-427)	IC50 [8]
C#Cc1c(F)ccc2cc(O)cc(-c3ncc4c(N5CC6CCC(C5)N6)nc(OCC(C)CN5CCN(CC6CCC7(CC6)CCN(C(=O)c6ccc(C)c(N8CCC(=O)NC8=O)c6)CC7)CC5)nc4c3F)c12 (stereo not shown) [Example 108, 1-(5-(9-((4-(3-((4-(3,8-diazabicyclo[3.2.1]octan-3-yl)-7-(8-ethynyl-7-fluoro-3-hydroxynaphthalen-1-yl)-8-fluoropyrido[4,3-d]pyrimidin-2-yl)oxy)-2-methylpropyl)piperazin-1-yl)methyl)-3-azaspiro[5.5]undecane-3-carbonyl)-2-methylphenyl)dihydropyrimidine-2,4(1H,3H)-dione]	0.00322 µM	0.00687 µM	0.00453 µM							
C#Cc1c(F)ccc2cc(O)cc(-c3ncc4c(N5CC6CCC(C5)N6)nc(OC[C@@H](C)CN5CCN(CC6CCC7(CC6)CCN(C(=O)c6ccc(OC)c(N8CCC(=O)NC8=O)c6)CC7)CC5)nc4c3F)c12 [Example 254, 1-(5-(9-((4-((S)-3-((4-(3,8-diazaspirobicyclo[3.2.1]octan-3-yl)-7-(8-ethynyl-7-fluoro-3-hydroxynaphthalen-1-yl)-8-fluoropyrido[4,3-d]pyrimidin-2-yl)oxy)-2-methylpropyl)piperazin-1-yl)methyl)-3-azaspiro[5.5]undecane-3-carbonyl)-2-methoxyphenyl)dihydropyrimidine-2,4(1H,3H)-dione]		0.0143 µM	0.00785 µM	0.0747 µM	0.0325 µM	83.4%	0.013 µM			
[2H]C([2H])(C1CCC2(CC1)CCN(C(=O)c1ccc(C)c(N3CCC(=O)NC3=O)c1)CC2)N1CCN(CC2(COc3nc(N4CC5CCC(C4)N5)c4ccc(-c5cc(O)cc6ccc(F)c(C#C)c56)c(F)c4n3)CC2)CC1 [Example 107, 1-(5-(9-((4-((1-(((4-(3,8-diazabicyclo[3.2.1]octan-3-yl)-7-(8-ethynyl-7-fluoro-3-hydroxynaphthalen-1-yl)-8-fluoroquinazolin-2-yl)oxy)methyl)cyclopropyl)methyl)piperazin-1-yl)methyl-d2)-3-azaspiro[5.5]undecane-3-carbonyl)-2-methylphenyl)dihydropyrimidine-2,4(1H,3H)-dione]		0.0108 µM	0.0275 µM		0.0137 µM	97.5%		0.00498 µM	94.7%	
COc1ccc(C(=O)N2CCC3(CCC(CN4CCN(CC5(COc6nc(N7CC8CCC(C7)N8)c7cnc(-c8cc(O)cc(Cl)c8C8CC8)c(F)c7n6)CC5)CC4)CC3)CC2)cc1N1CCC(=O)NC1=O [Example 89]		0.0129 µM	0.0115 µM		0.0947 µM	69%	0.00865 µM			
C#Cc1c(F)ccc2cc(O)cc(-c3ccc4c(N5CC6CCC(C5)N6)nc(OC[C@H](C)CN5CCN(CC6CCC7(CC6)CCN(C(=O)c6ccc(OC)c(N8CCC(=O)NC8=O)c6)CC7)CC5)nc4c3F)c12 [Example 207, 1-(5-(9-((4-((R)-3-((4-(3,8-diazabicyclo[3.2.1]octan-3-yl)-7-(8-ethynyl-7-fluoro-3-hydroxynaphthalen-1-yl)-8-fluoroquinazolin-2-yl)oxy)-2-methylpropyl)piperazin-1-yl)methyl)-3-azaspiro[5.5]undecane-3-carbonyl)-2-methoxyphenyl)dihydropyrimidine-2,4(1H,3H)-dione]			0.0161 µM		0.0151 µM	99.7%	0.0112 µM			0.0345 µM
